The values below are quoted from earlier work in patent US4946853A, “Method for the treatment of withdrawal symptoms associated with smoking cessation and preparations for use in said method” (priority 1987, dated 1990).

For data set [1] the following is noted: within one hour of first smoking; 60 min.
For data set [2] the following is noted: oral nicotine administration.
The conditions of data set [3]: in vivo.

On to `CN1CCCC1c1cccnc1` (stereo not drawn) [nicotine], for which the “normal plasma trough level associated with usual smoking” value in data set [1] is 5 to 15 ng/mL. Also, the gastrointestinal upsets result in data set [2] is reported as “susceptibility of the patient to gastrointestinal upsets”. The “absorption by the percutaneous route” value in data set [3] was “high degree of absorption”.
